Source: patent US8710045B2, “Agents for preventing and treating disorders involving modulation of the ryanodine receptors” (The Trustees of Columbia University in the City of New York, priority 2004, dated 2014)

How the values were obtained:
FDB muscle fibers = experiment: Confocal calcium imaging of isolated FDB muscle fibers during fatigue protocol; assay type: in vivo, mouse; details: FDB fibers from treated, chronically exercised mice
Protocol: Confocal microscopy: Single flexor digitorum brevis (FDB) fibers were enzymatically dissociated by standard methods (Reiken, Lacampagne et al. 2003). Briefly, the muscle was dissected from the paw, placed in a modified Ringer's solution, and stripped of all fascia. Type 1 collagenase-(2 mg/ml, Sigma) in Ringer's solution was prepared fresh, and the muscle was digested for 2 hours at 37° C. in a incubator shaking at 125 rpm. The muscle was placed in fresh Ringer's and gently triturated. Single fibers were collected and allowed to attach to glass coverslips coated in laminin (Sigma L-2020). The cells were loaded with 2 μM fluo-4-AM ester (Invitrogen) for 20 minutes, placed on the Zeiss Live 5 microscope stage and superfused for 15 minutes with Ringer's. The fibers were paced at 1 Hz for 10 minutes prior to imaging baseline fiber properties. Linescan images were continuously acquired at 1 ms scan rate during a tetanic sequence consisting of 300 ms stimulation at 100 Hz with a 2 Hz train rate. Images were analyzed in ImageJ, and an F/F0 ratio was calculated for each fiber.
Reduced fatiguability in calstabin1 rebound FDB muscle fibers: Flexor digitorum brevis (FDB) muscle fibers were enzymatically dissociated from mice following the chronic exercise protocol and loaded with the calcium indicator fluo-4. […] The kinetics of Ca^2+ release and reuptake during single twitches at 1 Hz were assessed.

calpain = experiment: Calpain activity assay in EDL homogenates of chronically exercised mice; assay type: in vivo, mouse
Protocol: Calpain and Creatine Kinase Assays: Tissue calpain activities were measured using a calpain activity assay kit (Calbiochem, San Diego, Calif.) (FIG. 42B). This assay is based on the degradation of the fluorescent peptide substrate Suc-LLVY-AMC (Calbiochem). Muscle homogenates were diluted to a final concentration of 600 μg/ml and the calpain activity in the homogenate was determined as per manufactures instructions. Plasma creatine kinase (CK) activity was assayed using the regent kit from Pointe Scientific, Inc. (Canton, Mich.) (FIG. 42A). Plasma samples (duplicates, 5 μl each) were added to 200 μl of CK reagent and the change in absorbance at 340 nm was recorded over 4 minutes using a plate reader. The average absorbance change per minute was used to determine the CPK levels as per manufacturer's instructions.
Reduced calpain activation in muscle tissue and reduced muscle tissue damage due to calstabin1 rebinding: One possible mechanism by which calcium released by leaky RyR1 channels impairs exercise performance is the activation of a member of the calpain family of Ca^2+-dependent neutral proteases, which are known to be responsible for muscle damage in a number of pathophysiological states. […] Calpain activity in muscle homogenates was assessed by means of the degradation of the synthetic calpain substrate Suc-LLVY-AMC, which fluoresces upon cleavage by calpain.

L-type Ca2+ channels = molecular target: T1, L-type Ca2+ channels (Mus musculus, UniProt Q01815); experiment: L-type Ca2+ channel current, whole-cell patch clamp in isolated mouse cardiomyocytes; assay type: cell-based; details: Ba2+ as charge carrier
T1 construct: currents through L-type Ca^2+ channels in isolated mouse cardiomyocytes are recorded; endogenous in cells; host or cells: isolated mouse cardiomyocytes
Protocol: The final pellets are pooled and resuspended in imidazole buffer (final concentration≈10 μg/μl). […] Immunoblots are developed using an anti-FKBP antibody (1:3,000 dilution). The amount of rebinding is quantified using densitometry of Western blots and is compared to the amount of FKBP associated with RyR in non-phosphorylated SR. […] K2ATP, 5; HEPES, 10; aspartic acid, 50; pH 7.4 (CsOH). […] Drugs are applied by a local solution changer and reach the cell membrane within 1 s.

C57BL/6J mice = experiment: S36 chronic exercise model: swimming velocity tracking and treadmill running; assay type: in vivo, mouse
Protocol: Drug Delivery: Eight-week-old, wild-type, weight-matched, C57BL/6J littermate mice were randomized to either S36 or vehicle treatment. On day −2, osmotic infusion pumps (Alzet Model 2004, 200 μl total volume, 0.25 μl/hr delivery, Durect, Cupertino, Calif.) filled with either 200 ul of PBS or 200 μl of S36 (10 μg/ul diluted in PBS) were implanted subcutaneously on the dorsal surface of the mice by a horizontal incision just behind the neck. Mice were allowed to recover for three days prior to the initiation of exercise. Standard food and water were provided ad libitum.
Exercise Protocols: Beginning on day 1, mice were exercised for three weeks by swimming 5 days/week and by running on a treadmill an additional 1 day/week.
Swimming Model: The daily swimming protocol consisted of swimming sessions twice-daily separated by one-hour rest periods. After an initial conditioning regimen lasting 5 days during which the swimming sessions were increased in 10 minute increments from 40 minutes each to 80 minutes each, the swimming sessions thereafter lasted 90 minutes each. A 30 cm wide by 30 cm long opaque acrylic tank was filled with tap water to a depth of at least 20 cm. Water was circulated and warmed to 32-34 degrees C. using a separate reservoir with heating element, thermostat, and pump. Compressed room air was bubbled from Tygon tubing with small needle holes placed at the bottom of the tank to agitate the water surface. 4 mice, matched pair-wise with respect to treatment group, swam at any one time in the tank.
In order to track the swimming activity of each individually identified mouse, a video tracking system was used (San Diego Instruments, San Diego, Calif.), which includes Sony CCD video recorder, DVD/Hard Drive, frame grabber card, and custom SMART 2.0 software with Social Behavior package capable of tracking up to 8 mice simultaneously under ideal conditions.) Mice were anesthetized by using 1.5% isoflurane in O2, and small, 0.75 cm, Velcro coins were sutured with 5-0 nylon suture to the scalp of each mouse. Plastic 1 cm colored dots, glued to the hook side of the Velcro, could be securely attached to the mouse and used for multiple subject tracking under appropriate lighting conditions. Each resultant mouse track in x,y, and time was analyzed and mean velocities, and distance swam over 2, 5, and 10 minute intervals was obtained.
Treadmill running: A Columbus Instruments (Columbus, Ohio) treadmill (Model: Exer-6M Treadmill with Treadmill Shock Detection Unit) with 6 lanes was used to run the mice. Mice were placed in their respective lanes at the lowest speed (7 meters/min) with the shocking apparatus turned off and allowed to adjust to the surroundings for 6 minutes. The forward half of the treadmill was covered with aluminum foil to block out light. A desk lamp illuminated the shocking area at the rear of the treadmill. After the adjustment period, the electric current was turned on, and the number of shocks delivered during the next two three minute intervals (training period) were recorded. The shock counter was then reset, the speed was increased to 10 m/min, and visits to the shocking area and shocks delivered to each mouse were recorded at three-minute intervals until the end of the experiment. At regular intervals, the speed of the treadmill was ramped up from the initial 10 m/min to as high as 36 m/min. The speed was increased no more than 2 m/min every 6 minutes. […]

T1 sequence (Q01815 whole entry): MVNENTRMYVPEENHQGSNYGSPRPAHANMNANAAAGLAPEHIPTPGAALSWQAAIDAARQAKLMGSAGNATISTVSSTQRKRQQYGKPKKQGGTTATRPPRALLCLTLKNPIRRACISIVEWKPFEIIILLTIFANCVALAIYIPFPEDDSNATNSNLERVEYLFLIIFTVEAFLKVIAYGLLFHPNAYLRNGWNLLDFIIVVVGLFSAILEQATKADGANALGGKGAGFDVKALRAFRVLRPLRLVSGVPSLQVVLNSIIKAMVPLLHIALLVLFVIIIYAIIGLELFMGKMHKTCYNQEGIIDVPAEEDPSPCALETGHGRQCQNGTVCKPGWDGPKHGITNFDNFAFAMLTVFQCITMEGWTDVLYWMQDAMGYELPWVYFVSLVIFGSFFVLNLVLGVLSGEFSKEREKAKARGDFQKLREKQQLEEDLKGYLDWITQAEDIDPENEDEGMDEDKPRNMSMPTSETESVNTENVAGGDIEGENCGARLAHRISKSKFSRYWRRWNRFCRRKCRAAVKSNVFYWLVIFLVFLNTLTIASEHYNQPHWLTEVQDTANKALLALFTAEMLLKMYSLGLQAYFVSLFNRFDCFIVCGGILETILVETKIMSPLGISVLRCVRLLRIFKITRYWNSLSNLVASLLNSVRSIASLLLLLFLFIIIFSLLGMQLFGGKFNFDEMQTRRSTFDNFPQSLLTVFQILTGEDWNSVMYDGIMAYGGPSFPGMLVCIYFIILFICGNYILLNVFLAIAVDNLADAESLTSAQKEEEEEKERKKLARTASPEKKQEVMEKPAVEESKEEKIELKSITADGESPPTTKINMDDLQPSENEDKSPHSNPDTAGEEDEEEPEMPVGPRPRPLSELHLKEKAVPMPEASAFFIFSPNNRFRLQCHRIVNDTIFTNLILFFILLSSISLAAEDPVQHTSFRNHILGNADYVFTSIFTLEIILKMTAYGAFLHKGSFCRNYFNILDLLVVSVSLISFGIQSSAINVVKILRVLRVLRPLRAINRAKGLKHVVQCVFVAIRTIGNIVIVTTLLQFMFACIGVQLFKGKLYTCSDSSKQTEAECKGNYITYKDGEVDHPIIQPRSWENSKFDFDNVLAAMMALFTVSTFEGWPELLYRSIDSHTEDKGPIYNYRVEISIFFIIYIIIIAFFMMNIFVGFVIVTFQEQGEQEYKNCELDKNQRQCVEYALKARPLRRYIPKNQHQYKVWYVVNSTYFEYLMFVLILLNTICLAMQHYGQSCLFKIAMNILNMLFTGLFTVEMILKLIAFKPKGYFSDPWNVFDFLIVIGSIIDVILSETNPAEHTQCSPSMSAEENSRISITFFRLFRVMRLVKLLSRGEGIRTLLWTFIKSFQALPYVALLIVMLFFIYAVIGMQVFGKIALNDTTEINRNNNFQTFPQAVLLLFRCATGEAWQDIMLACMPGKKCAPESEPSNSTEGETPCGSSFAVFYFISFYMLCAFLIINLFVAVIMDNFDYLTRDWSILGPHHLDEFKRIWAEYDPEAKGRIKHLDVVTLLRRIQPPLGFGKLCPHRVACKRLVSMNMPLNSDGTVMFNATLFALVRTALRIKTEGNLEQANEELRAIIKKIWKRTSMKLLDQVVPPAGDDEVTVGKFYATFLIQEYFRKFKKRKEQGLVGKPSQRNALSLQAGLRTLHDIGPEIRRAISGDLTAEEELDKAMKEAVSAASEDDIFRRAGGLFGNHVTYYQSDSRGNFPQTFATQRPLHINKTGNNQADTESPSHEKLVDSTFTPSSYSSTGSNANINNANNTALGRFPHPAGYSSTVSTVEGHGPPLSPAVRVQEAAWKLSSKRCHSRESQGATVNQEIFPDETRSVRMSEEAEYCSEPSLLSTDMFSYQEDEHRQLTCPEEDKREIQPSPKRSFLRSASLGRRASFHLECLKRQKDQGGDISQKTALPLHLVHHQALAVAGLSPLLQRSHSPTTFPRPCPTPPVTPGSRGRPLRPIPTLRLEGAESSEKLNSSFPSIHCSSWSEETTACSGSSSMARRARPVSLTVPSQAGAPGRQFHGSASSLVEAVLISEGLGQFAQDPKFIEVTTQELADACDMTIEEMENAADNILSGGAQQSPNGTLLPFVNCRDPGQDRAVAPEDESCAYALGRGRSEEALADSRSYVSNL
T1 sequence (Q8CC27 whole entry partner): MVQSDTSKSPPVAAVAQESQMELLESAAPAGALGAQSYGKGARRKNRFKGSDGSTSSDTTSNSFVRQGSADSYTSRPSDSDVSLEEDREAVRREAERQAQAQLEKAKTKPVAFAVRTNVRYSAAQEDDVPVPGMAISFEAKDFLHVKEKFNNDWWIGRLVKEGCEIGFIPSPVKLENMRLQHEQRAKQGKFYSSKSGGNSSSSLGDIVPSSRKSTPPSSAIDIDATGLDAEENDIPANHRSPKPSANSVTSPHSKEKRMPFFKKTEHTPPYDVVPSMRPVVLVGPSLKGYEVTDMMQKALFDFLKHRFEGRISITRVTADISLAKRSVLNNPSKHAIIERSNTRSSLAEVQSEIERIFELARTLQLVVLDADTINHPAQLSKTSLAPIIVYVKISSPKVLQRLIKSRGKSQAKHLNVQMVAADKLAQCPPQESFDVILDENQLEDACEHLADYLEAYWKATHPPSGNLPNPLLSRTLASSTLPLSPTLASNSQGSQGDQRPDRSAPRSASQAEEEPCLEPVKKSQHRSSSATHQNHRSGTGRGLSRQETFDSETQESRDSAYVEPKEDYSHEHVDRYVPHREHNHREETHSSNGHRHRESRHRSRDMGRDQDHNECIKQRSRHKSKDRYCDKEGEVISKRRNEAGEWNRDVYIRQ
T1 sequence (O08532 25-956 partner limits assumed): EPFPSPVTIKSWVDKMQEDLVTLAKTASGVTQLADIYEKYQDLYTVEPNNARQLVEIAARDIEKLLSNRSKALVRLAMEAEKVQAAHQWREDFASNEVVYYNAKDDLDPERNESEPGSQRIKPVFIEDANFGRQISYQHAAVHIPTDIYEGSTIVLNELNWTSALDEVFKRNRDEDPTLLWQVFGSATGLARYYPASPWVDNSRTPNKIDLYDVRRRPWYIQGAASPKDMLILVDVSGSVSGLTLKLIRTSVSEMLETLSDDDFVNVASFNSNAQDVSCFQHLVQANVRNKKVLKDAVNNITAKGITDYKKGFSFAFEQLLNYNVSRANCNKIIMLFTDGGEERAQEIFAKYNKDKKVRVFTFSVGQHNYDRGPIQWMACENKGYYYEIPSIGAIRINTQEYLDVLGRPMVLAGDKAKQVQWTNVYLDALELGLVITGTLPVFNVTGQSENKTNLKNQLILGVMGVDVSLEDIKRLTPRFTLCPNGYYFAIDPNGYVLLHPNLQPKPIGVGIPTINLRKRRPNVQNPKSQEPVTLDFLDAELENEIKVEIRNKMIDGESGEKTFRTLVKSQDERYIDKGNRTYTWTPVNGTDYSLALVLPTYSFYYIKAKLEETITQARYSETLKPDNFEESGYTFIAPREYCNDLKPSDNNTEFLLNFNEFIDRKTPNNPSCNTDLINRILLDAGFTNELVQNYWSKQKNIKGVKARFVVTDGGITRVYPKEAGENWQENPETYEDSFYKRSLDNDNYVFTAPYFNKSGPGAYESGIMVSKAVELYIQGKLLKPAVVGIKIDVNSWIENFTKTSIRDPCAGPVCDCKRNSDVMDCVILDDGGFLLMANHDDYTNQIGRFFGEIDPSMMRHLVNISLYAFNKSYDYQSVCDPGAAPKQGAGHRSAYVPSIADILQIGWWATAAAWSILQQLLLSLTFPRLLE
T1 sequence (O08532 957-1103 partner limits assumed): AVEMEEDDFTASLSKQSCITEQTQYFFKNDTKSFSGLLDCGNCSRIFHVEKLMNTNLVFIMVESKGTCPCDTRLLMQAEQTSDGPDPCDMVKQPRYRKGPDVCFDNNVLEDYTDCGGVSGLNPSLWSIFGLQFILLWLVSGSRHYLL

COc1ccc2c(c1)CN(C)CCS2 [S107]
peak tetanic calcium transients during fatigue protocol (FDB muscle fibers): delayed decline in peak tetanic calcium transients | Calpain activity in EDL homogenates (calpain): significantly reduced

COc1ccc2c(c1)CN(C(=O)C(=O)O)CCS2 [S36]
block of L-type Ca2+ channel current (ICa,L) (L-type Ca2+ channels): does not block | swimming velocity vs PBS (C57BL/6J mice; day 1 of exercise): no substantial difference | swimming velocity and treadmill distance/fatigue time vs PBS (C57BL/6J mice; day 7 of exercise): no substantial difference | swimming velocity vs PBS (C57BL/6J mice; day 14): no significant difference | treadmill running performance vs PBS (C57BL/6J mice; day 14): trend toward improved performance | treadmill running performance vs PBS (C57BL/6J mice; day 16): trend toward improved performance
